Assay results reported in patent US10966976B2, “Methods for inducing an immune response by inhibition of nonsense mediated decay” (MOONSHOT PHARMA LLC, priority 2015, dated 2021).

How the values were obtained:
[1] = tested on: MC38 tumor cells; assay: MC38 subcutaneous syngeneic tumor model, tumor volume by caliper; format: in vivo, C57BL/6 mice; set-up: Percent inhibition of tumor volume: concentration or dose not given beside the values; settings: for Percent inhibition of tumor volume: vs vehicle group, negative values indicate an increase in tumor volume
Description: This Example evaluated the effectiveness of an NMDI alone and in combination with one or more immunotherapy agents for the treatment of tumor-bearing C57BL/6 mice.
Animals: Female 6-8 week old (estimated age at inoculation) C57BL/6 mice were obtained from Shanghai Lingchang Bio-Technology Co. Ltd (LC, Shanghai, China). The animals were housed at 20-26° C. with a 12 hours light and 12 hours darkness cycle.
Cell Culture: MC38 tumor cells were maintained in vitro as a monolayer culture in DMEM medium supplemented with 10% fetal bovine serum at 37° C. in an atmosphere of 5% CO2 in air. The tumor cells were routinely subcultured twice weekly. Cells in an exponential growth phase were harvested and counted for tumor inoculation.
Therapeutic compounds: Anti-PD-1 and anti-CTLA-4 antibodies were obtained from BioXCell as was an anti-CD8 antibody. The nonsense mediated decay inhibitor NMDI14 (4,5-Dimethyl-2-[[2-(1,2,3,4-tetrahydro-6,7-dimethyl-3-oxo-2-quinoxalinyl)acetyl]amino]-3-thiophenecarboxylic acid ethyl ester, Ethyl 2-{[(6,7-dimethyl-3-oxo-1,2,3,4-tetrahydro-2-quinoxalinyl)acetyl]amino}-4,5-dimethyl-3-thiophenecarboxylate) was obtained from ChemBridge Corp. (La Jolla, Calif.).
Tumor Inoculation: Each mouse was inoculated subcutaneously at the right lower flank region with MC38 tumor cells (1×10^6) in 0.1 mL of PBS for tumor development. The treatments were started when the mean tumor size reaches approximately 50 mm^3. The date of tumor cell inoculation was denoted as day 0.
Group assignment: Before grouping and treatment, all animals were weighed and the tumor volumes measured using a caliper. Tumor volume was used as numeric parameter to randomize selected animals into specified groups in order to minimize systematic error. The grouping was performed by using StudyDirector™ software (Studylog Systems, Inc. CA, USA). One optimal randomization design (generated by Matched distribution) showing minimal group to group variation in tumor volume was selected for group allocation.
After tumor cell inoculation, the animals were checked daily for morbidity and mortality as well as any effects of tumor growth and treatments on normal behavior such as mobility, visual estimation of food and water consumption, body weight gain/loss, eye/hair matting and any other abnormal effect. Tumor volumes were measured twice weekly at least in two dimensions using a caliper, and the volume expressed in mm^3 using the formula: V=0.5 a×b^2 where a and b are the long and short diameters of the tumor, respectively.

[2] = tested on: CD3+ immune cells infiltrating tumor tissue; assay: Immunohistochemistry of sectioned tumor tissue, immune cell infiltration; format: in vivo, C57BL/6 mice; settings: FFPE tumor sections; FIG. 4
Description: Immunohistochemistry (IHC): Formalin-fixed paraffin-embedded (FFPE) tissue from tumor samples were sectioned to 4 urn. Antigen retrieval (AR) was conducted at 100° C., in EDTA buffer, at pH 9.0 for 20 min. Primary antibody (diluted with validated concentration), RT 60 min+ secondary antibody (ready-to-use), RT 60 min+Bond Polymer Refine Detection.

## CCOC(=O)c1c(NC(=O)CC2Nc3cc(C)c(C)cc3NC2=O)sc(C)c1C (stereo not drawn) [NMDI14, 4,5-Dimethyl-2-[[2-(1,2,3,4-tetrahydro-6,7-dimethyl-3-oxo-2-quinoxalinyl)acetyl]amino]-3-thiophenecarboxylic acid ethyl ester]
[1]; Day 9
  Percent inhibition of tumor volume: −0.11%
[1]; Day 9 after inoculation, MC38 tumor-bearing C57BL/6 mice, i.p., NMDI14 20 mg/kg QDx3 weeks, antibodies 10 mg/kg (anti-CD8 200 ug/mouse) BIW x 3 weeks, n=8
  Mean tumor volume: 52.02 mm^3
[1]; Day 12, same model and dosing (Table 2)
  Mean tumor volume: 72.22 mm^3
[1]; Day 12
  Percent inhibition of tumor volume: 14.08%
[1]; Day 15, same model and dosing (Table 2)
  Mean tumor volume: 135.90 mm^3
[1]; Day 15
  Percent inhibition of tumor volume: −4.42%
[1]; Day 18, same model and dosing (Table 2)
  Mean tumor volume: 270.73 mm^3
[1]; Day 18
  Percent inhibition of tumor volume: 6.19%
[1]; Day 22, same model and dosing (Table 2)
  Mean tumor volume: 405.71 mm^3
[1]; Day 22
  Percent inhibition of tumor volume: 15.14%
[1]; Day 25, same model and dosing (Table 2)
  Mean tumor volume: 644.91 mm^3
[1]; Day 25
  Percent inhibition of tumor volume: 19.44%
[1]; Day 29, same model and dosing (Table 2)
  Mean tumor volume: 999.58 mm^3
[1]; Day 29
  Percent inhibition of tumor volume: 20.58%
[1]; Day 32, same model and dosing (Table 2)
  Mean tumor volume: 1395.65 mm^3
[1]; Day 32
  Percent inhibition of tumor volume: 21.74%
[1]; MC38 tumor-bearing C57BL/6 mice, Table 6, FIG. 1-3
  Tumor inhibition (in words): tumor inhibition-promoting properties
[2]
  CD3+ immune cell infiltration of tumor tissue (IHC, in words): significant numbers of CD3+ immune cells infiltrating tumor tissue
